According to ChEMBL document CHEMBL4418497, “Compositions and methods relating to inhibiting serine hyrdoxymethyltransferase 2 activity” (2016):

biological target: T1, Serine hydroxymethyltransferase, mitochondrial (Homo sapiens, UniProt P34897); assay: Inhibition of His-tagged human recombinant SHMT2 expressed in Escherichia coli BLR(DE3) assessed as reduction in NADPH level using L-serine, THF and NADP+ incubated for 5 mins by SHMT2-MTHFD coupled reaction based fluorescence assay; settings: read-out: IC50
T1 sequence (P34897 whole entry): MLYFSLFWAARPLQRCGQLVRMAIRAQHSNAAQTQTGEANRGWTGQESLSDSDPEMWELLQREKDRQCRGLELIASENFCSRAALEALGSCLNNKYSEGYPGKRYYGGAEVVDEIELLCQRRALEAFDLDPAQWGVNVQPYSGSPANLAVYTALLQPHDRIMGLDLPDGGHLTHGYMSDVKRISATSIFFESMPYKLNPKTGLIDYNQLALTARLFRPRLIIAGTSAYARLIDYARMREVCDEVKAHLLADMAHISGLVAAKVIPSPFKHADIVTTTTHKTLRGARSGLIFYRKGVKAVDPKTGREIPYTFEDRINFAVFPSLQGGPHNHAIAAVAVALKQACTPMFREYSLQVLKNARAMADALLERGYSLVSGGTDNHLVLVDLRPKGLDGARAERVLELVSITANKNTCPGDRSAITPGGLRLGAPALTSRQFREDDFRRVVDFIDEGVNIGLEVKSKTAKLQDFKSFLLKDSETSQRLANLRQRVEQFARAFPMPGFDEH

Structure (SMILES)	IC50 [µM]
CC(C)Cn1cc(NC(=O)NCCN2CCN(C)CC2)c2ccccc2c1=O	2.45
COc1ccc(OC)c(Nc2c(-c3cc(C)c(C)cc3C)c(=O)c2=O)c1	10
COc1cc(OC)c(NC(=O)NCCC2=CSC3CC(C)CCC23)cc1Cl (configuration not stated)	7.08
COc1ccc(Nc2ncnc3sc(C(=O)O)cc23)c(OC)c1	1.35
COc1ccc(OC)c(Nc2c(-c3ccc4c(c3)CCCC4)c(=O)c2=O)c1	2.4
CC(C)Cn1cc(NC(=O)NC2CCCC2)c2ccccc2c1=O	2.24
CC(C)Cn1cc(NC(=O)NCCc2ccsc2)c2ccccc2c1=O	1.66
COc1ccc(Nc2nnc(-n3nc(C)cc3C)c3ccccc23)c(OC)c1	3.47
CC(C)Cn1cc(NC(=O)Nc2cccnc2)c2ccccc2c1=O	2.24
Nc1ncccc1NC(=O)CCC(=O)O	4.47
Cc1c(C(=O)NCCN2CCOCC2)oc2c1-c1[nH]ncc1CC2	3.55
CC(C)Cn1cc(NC(=O)Nc2ccc(Cl)cn2)c2ccccc2c1=O	3.8
O=C(Nc1ccc2c(c1)OCCO2)N1CCc2c([nH]c3ccccc23)C1c1ccccc1F (configuration not stated)	4.79
CC(C)Cn1cc(NC(=O)NC2CC2)c2ccccc2c1=O	8.71
CCOC(=O)Cc1csc(NC(=O)Nc2cn(CC(C)C)c(=O)c3ccccc23)n1	3.31
CC(C)Cn1cc(NC(=O)Nc2cccc(F)c2)c2ccccc2c1=O	2.24
COCCCNc1nc(Nc2ccc(OC)cc2)c2cnn(C)c2n1	2.34
Cn1cc(NC(=O)N2CCCCC2)c2ccccc2c1=O	9.33
COc1ccc(N2C(=O)c3cccnc3C2Nc2ccc(OC)c(OC)c2)cc1 (configuration not stated)	2.95
COc1ccc(NCc2cccn2-c2nnc(N3CCCCC3)s2)cc1OC	3.39
CC(C)Cn1cc(NC(=O)N2CCN(c3cccc(Cl)c3)CC2)c2ccccc2c1=O	5.89
O=C(Nc1ccc(Br)cc1F)N1CCSc2ncccc21	7.59

Structure (SMILES)	IC50 [µM]
O=C1c2ccccc2C(Nc2ccc3[nH]c(-c4cccnc4)nc3c2)N1Cc1ccco1 (configuration not stated)	9.77
CCc1ccc(NS(=O)(=O)c2ccc3c4c2CC(=O)N4CC(C)S3)cc1 (configuration not stated)	2.14
CC(C)Cn1cc(NC(=O)NC(C)c2ccccc2)c2ccccc2c1=O (configuration not stated)	2.75
O=C(Nc1cccc2c1CCCC2)N1CCSc2ncccc21	2.34
CCNc1nc2[nH]c(=O)cc(O)c2s1	1.91
O=C1CN(S(=O)(=O)c2ccc3[nH]c4c(c3c2)CCCC4)c2ccccc2N1	6.76
COc1ccc2c(c1)C=C(C(=O)Nc1ccc(OC)cc1OC)CO2	8.71
Cc1cc2nc(CSc3nc4ccc(NC(=O)CCC5CCCC5)cc4s3)cc(=O)n2o1	9.55
CCN(CC)CCNC(=O)c1noc2c1CCc1sccc1-2	4.17
COc1ccc(NC(=O)N2CCC3(CC2)Nc2ccccc2-n2cccc23)c(OC)c1	3.47
CCC(CC)C(=O)Nc1cc(F)c2nc(N3CCOCC3)ccc2c1	5.13
CC(C)Cn1cc(NC(=O)NCCN2CCCCC2)c2ccccc2c1=O	1.74
Cc1ccc2oc(SCC(=O)Nc3cccc(N4CCCC4=O)c3)nc2n1	4.47
COc1ccc(Nc2nnc(-n3nc(C)cc3C)c3ccccc23)cc1OC	8.32
COc1cc2c(cc1OC)C(C)N(C(=O)Nc1cn(CC(C)C)c(=O)c3ccccc13)CC2 (configuration not stated)	3.02
O=C(Cc1cccs1)Nc1cc(F)c2nc(N3CCOCC3)ccc2c1	4.79
Cc1nc(SCC(=O)Nc2cccc3nsnc23)oc1C	2.51
COc1ccc(Nc2nc(NCCO)nc3c2cnn3C)cc1	1.86
O=C(CSc1nc2ncccc2o1)Nc1ccc(S(=O)(=O)Nc2ccc(F)cc2)cc1	2.75
CCC1c2ccc(C)n2CCN1C(=O)Nc1cc(OC)ccc1OC (configuration not stated)	6.31
O=C(CSc1nc2ncccc2o1)Nc1ccc(S(=O)(=O)NC2CCCCC2)cc1	3.02
Cc1ccc2c(c1)c1c(n2CC(O)CNCCO)C(=O)CCC1 (configuration not stated)	5.01

Structure (SMILES)	IC50 [µM]
COc1ccc(NC(=O)N2CCSc3ccccc32)cc1OC	7.08
COc1ccc(NC(=O)N2CCn3c(C)ccc3C2C(C)C)cc1OC (configuration not stated)	2.69
Cn1cc(NC(=O)NCc2cccnc2)c2ccccc2c1=O	5.75
CCC(=O)Nc1cc(F)c2nc(N3CCOCC3)ccc2c1	1.55
CCC(CC)n1nc(O)c2c(C)cc(=O)[nH]c21	7.41
CNc1nc(Nc2ccc(OC)cc2)c2cnn(C)c2n1	13.8
CC(=O)N1CCc2c(c(=O)[nH]c3onc(C)c23)C1	1.41
CCOc1ccc(C2CC(=O)N3CN(c4ccc(OCC)cc4)CSC3=C2C#N)cc1 (configuration not stated)	10.5
O=C1CSC(c2ccccn2)N1c1ccc2ccccc2c1 (configuration not stated)	11
CCN(CC)S(=O)(=O)c1ccc(NC(=O)Nc2cn(CC(C)C)c(=O)c3ccccc23)cc1	3.72
COc1cc(OC)c(NC(=O)Nc2cn(CC(C)C)c(=O)c3ccccc23)cc1Cl	2.95
Cn1cc(NC(=O)NCC2CCCO2)c2ccccc2c1=O (configuration not stated)	4.47
COCCN1CCn2c(nc3cc(NC(=O)NC4CCCCC4)ccc32)C1	5.13
C=CCn1c(=O)sc2cc(NC(=O)Cc3ccc(F)cc3)ccc21	10.2
Cn1cc(NC(=O)NCC2COc3ccccc3O2)c2ccccc2c1=O (configuration not stated)	4.68
COc1cc(OC)c(NC(=O)N2CCn3cccc3C2C)cc1Cl (configuration not stated)	12.9
CCOC(=O)c1c(S(=O)(=O)Nc2ccc(OC)c(OC)c2)c(C)n(C)c1C	8.13
CCC1=NN(c2ccccc2)C(=O)C1	8.51
CC(C)CC(=O)Nc1cc(F)c2nc(N3CCOCC3)ccc2c1	2.57
CC(C)NC(=O)N1CCC2(CC1)Nc1cc(F)ccc1-n1cccc12	9.77
CCCCC(=O)Nc1cc(F)c2nc(N3CCOCC3)ccc2c1	1.58
CC(C)Cn1cc(NC(=O)N(Cc2ccco2)C2CCCCC2C)c2ccccc2c1=O (configuration not stated)	6.31

Structure (SMILES)	IC50 [µM]
Cc1ccc(-c2cc(Nc3cccc4cccnc34)nc(C)n2)cc1	1.51
Fc1ccc(NCc2ccc3nccnc3c2)c(F)c1	2.75
CC(=O)Nc1ncc2c(n1)CC(c1ccco1)CC2=O (configuration not stated)	4.57
COc1c(C)cnc(CSc2nc3ncccc3o2)c1C	4.07
Cc1c(C(=O)N2CCOCC2)oc2c1-c1nn(CC(=O)NC3CCCCC3C)cc1CC2 (configuration not stated)	3.16
CCOC(=O)CSc1nc2ccc(N)cc2s1	0.71
COc1ccc(-c2nc3c4nsnc4ccc3n2C)cc1Br	0.54
CCCNC(=O)Nc1cn(CC(C)C)c(=O)c2ccccc12	2.14
CCOC(=O)C1CCCN(C(=O)Nc2cn(C)c(=O)c3ccccc23)C1 (configuration not stated)	6.46
COc1ccc(OC)c(NS(=O)(=O)c2cc(-c3cc(C)no3)ccc2C(C)C)c1	3.89
CCC(Sc1nc2ncccc2o1)C(=O)Nc1c(C)cc(C)cc1C (configuration not stated)	2.51
CC(=O)Oc1cc2c(C(=O)NCC3CCCO3)c(C)oc2c2ccccc12 (configuration not stated)	3.72
O=C(Nc1cc(F)c2nc(N3CCOCC3)ccc2c1)c1ccco1	3.55
CC(C)Cn1cc(NC(=O)N2CCC(C(N)=O)(N3CCCCC3)CC2)c2ccccc2c1=O	2.51
COc1ccc(Nc2nc(Nc3ccc(OC)c(Cl)c3)c3cnn(C)c3n2)c(OC)c1	2.45
CC1=NC2c3c(oc(C(=O)NCC4CCCO4)c3C)CCC2S1 (configuration not stated)	4.07
CCOc1ccc2nc(NC(=O)CSc3nc4ncccc4o3)sc2c1	4.37
O=C(CSc1nc2ncccc2o1)Nc1ccc(S(=O)(=O)N2CCOCC2)cc1	2.63
COc1cc(NC(=O)N2CCSc3ncccc32)cc(OC)c1	2.57
CC1=NC2c3c(oc(C(=O)NC4CCCC4)c3C)CCC2S1 (configuration not stated)	4.37
CCOc1cc(-c2nnc3[nH]c(=O)n(C)c(=O)c3n2)ccc1OC(C)C	0.69

biological target: T2, Serine hydroxymethyltransferase, mitochondrial (Homo sapiens) (UniProt P34897); assay: Inhibition of His-tagged human recombinant SHMT2 expressed in Escherichia coli BLR(DE3) assessed as reduction in NADPH level using L-serine, THF and NADP+ at 6.5 or 26.5 uM incubated for 5 mins by SHMT2-MTHFD coupled reaction based fluorescence assay relative to control; settings: not given
T2 sequence (whole entry): T1 sequence (P34897 whole entry)

Structure (SMILES)	inhibition [%]
CN(C)N1C(=O)c2cccc3c(Br)ccc(c23)C1=O	69.8
Cc1[nH]c2ccc(O)cc2c1CCN	59
N#Cc1ccc(S(=O)(=O)Cc2cccc3ccccc23)cc1	54.5
COc1cc2c(CCNC(C)=O)c[nH]c2cc1O	92.7
Cc1cccc(CCN2CCC(C(=O)c3ccc(NS(C)(=O)=O)cc3)CC2)n1	54.9
